“Also recorded” adds a separate entry of the source.
B1: Q362A: FLAG-Ang2 protein modified form where glutamine at amino acid 362 (SEQ ID No. 42) is substituted by alanine (protein)
chain: MWQIVFFTLSCDLVLAAAYNNFRKSMDSIGKKQYQVQHGSCSYTFLLPEMDNCRSSSSPYVSNAVQRDAPLEYDDSVQRLQVLENIMENNTQWLMKLENYIQDNMKKEMVEIQQNAVQNQTAVMIEIGTNLLNQTAEQTRKLTDVEAQVLNQTTRLELQLLEHSLSTNKLEKQILDQTSEINKLQDKNSFLEKKVLAMEDKHIIQLQSIKEEKDQLQVLVSKQNSIIEELEKKIVTATVNNSVLQKQQHDLMETVNNLLTMMSTSNSAKDPTVAKEEQISFRDCAEVFKSGHTTNGIYTLTFPNSTEEIKAYCDMEAGGGGWTIIQRREDGSVDFQRTWKEYKVGFGNPSGEYWLGNEFVSALTNQQRYVLKIHLKDWEGNEAYSLYEHFYLSSEELNYRIHLKGLTGTAGKISSISQPGNDFSTKDGDNDKCICKCSQMLTGGWWFDACGPSNLNGMYYPQRQNTNKFNGIKWYYWKGSGYSLKATTMMIRPADF
modifications: FLAG tag; Human Ang2 protein

Legend:
U87MG cells [1] = test: Ang2 dependent adhesion of U87MG cells to Ang2-coated wells (CellTiter-Glo luminescence); type: cell-based, human; conditions: for inhibition activity against the binding of Ang2 and integrin: FIG. 10, U87MG adhesion to Ang2-coated wells, each peptide 100 μg/ml; for Ang2 dependent cell adhesion inhibition activity: Example 5.2, peptide 100 μg/ml, among the 41 peptides
Protocol: A 96-well plate was treated with 100 μl of a solution obtained by diluting Ang2 (R&D systems; 623-AN-025/CF) in a phosphate buffered saline (PBS) at a concentration of 10 μg/ml and incubated at 4° C. for 16 hours so that the wells were coated with Ang2. Thereafter, the Ang2-coated 96 wells were washed twice with PBS, treated with 200 μl of PBS containing 2% (v/v) bovine serum albumin (BSA) and then incubated at a room temperature for 2 hours for blocking. For a negative control, wells that were blocked without Ang2 coating (i.e., treated with BSA only) were prepared.
150 μl of the thus obtained cell suspension was added to each well of the 96-well plate that was prepared by performing coating and blocking procedures and incubating the plate in a CO2 incubator at 37° C. for 2 hours to induce cell adhesion.
Then, the plate was washed 4 times with serum-free media that was warmed to 37° C. to remove cells that were not adhered. The adhesion level of cells was quantified by adding 200 μl of CellTiter-Glo reagent (Promega) diluted in IMDM at 1:1 and then, measuring luminescence at EnVision® Multilabel Reader (PerkinElmer) after 10 min.
When Ang2-coated plates were treated with U87MG cells in accordance with the same methods as in Example 1.1, they were co-treated with one of the 41 peptides derived from Ang2 set forth in Table 2 to investigate the inhibition effects of the peptides against the adhesion of U87MG cells (see FIG. 8). Each peptide was treated at a concentration of 100 μg/ml and the number of U87MG cells treated with each peptide was about 4×10^4. The measurement of cell adhesion level was carried out in the same manner as Example 1.1. That is, after the addition of 200 μl of CellTiter-Glo reagent (Promega) diluted in IMDM at 1:1, their luminescence was measured at EnVision® Multilabel Reader (PerkinElmer) after 10 min.
When Ang2-coated plates were treated with U87MG cells in accordance with the same methods as in Example 1.1, they were co-treated with the C-body produced in Example 8 to investigate inhibition effects of C-body treatment on the adhesion of U87MG cells. The C-body was treated at a concentration of 20 μg/ml or 5 μg/ml, and the number of U87MG cells used was about 4×10^4 at each concentration.

integrin (αVβ3) = molecular target: T1, integrin (αVβ3) (Homo sapiens, UniProt P05106+P06756); test: ELISA: binding of Ang2 protein (wild type or Q362A) to coated integrin; conditions: 5 μg/ml protein, FIG. 11
T1 construct: purchased R&D systems
Protocol: After an ELISA plate was coated with diluents obtained by diluting 3 kinds of integrin proteins (alpha5beta1 (α5β1; α5: NCBI Accession No. P08648, β1: NCBI Accession No. P05556), alphaVbeta1 (αVβ1; αV: NCBI Accession No. P06756, β1: NCBI Accession No. P05556), and alphaVbeta3 (αVβ3; αV: NCBI Accession No. P06756, β3: NCBI Accession No. P05106); R&D systems)) in PBS at a concentration of 5 μg/ml (18 hours, 4° C.), it was blocked with 1% (v/v) BSA at a room temperature for 2 hours. Thereafter, it was treated with Ang2 protein having FLAG sequences (DYKDDDDK, Sigma) tagged at its N-terminal (FLAG-Ang2, 0.1 ml of Ang2 protein solution diluted in PBS at a concentration of 10 μg/ml), incubated at a room temperature for 2 hours, and washed 5 times with PBS-t (0.1% (v/v) triton X-100 in PBS). Then, it was followed by the addition of anti-FLAG antibody (Sigma) conjugated with horse radish peroxidase (HRP) and washed 5 times with PBS-t. Binding between Ang2 and 3 kinds of the integrins was verified indirectly by measuring the quantity of anti-FLAG antibody remaining in the ELISA plate through color development reaction using TMB (3,3,5,5-tetramethylbenzidine) as a substrate of HRP. As a negative control, one plate which was blocked without Ang2 protein treatment (BSA treatment only) was used. […]

U87MG cells [2] = test: U87MG cancer cell invasion in matrigel-coated transwell chamber; type: cell-based, human; conditions: 5 μg/ml in lower chamber, 48 hours; FIG. 14
Protocol: U87MG cells which underwent serum starvation for two days were detached using a cell dissociation solution (EDTA solution) and diluted in 0% serum IMDM media, and then 7.5×10^4 of the cells were each treated in an upper chamber of a matrigel-coated transwell chamber (24 wells, BD bioscience). Lower chambers were filled with a diluent obtained by diluting wild type Ang2 protein or its Q362A modified form (see Example 6) in 2% serum IMDM media at a concentration of 5 μg/ml. After 48 hours passed, the cells were dyed using calcein-AM solution (4 μg/ml; BD Biosciences) and observed using a fluorescence microscope to measure the number of the cells which invaded toward the bottom.
The left part of FIG. 14 indicates the number of the cells that migrated to the lower chambers, and the right part illustrates the observation results of fluorescence treatment of the cells which migrated to the lower chambers, using a fluorescence microscope. In FIG. 14, ‘−’ indicates a negative control where the lower chamber was not treated with Ang2 protein or its modified form.

Tie2 proteins (Q02763) = molecular target: T2, Tie2 proteins (Q02763) (Homo sapiens, UniProt Q02763); test: ELISA: binding of Ang2 protein (wild type or Q362A) to coated Tie2; conditions: Tie2 coated ELISA plates; FIG. 12
T2 construct: purchased R&D systems
Excerpt: The Y axis represents binding levels of each Ang2 protein to coated Tie2 or negative control BSA.

T1 sequence (P06756 31-889 limits assumed): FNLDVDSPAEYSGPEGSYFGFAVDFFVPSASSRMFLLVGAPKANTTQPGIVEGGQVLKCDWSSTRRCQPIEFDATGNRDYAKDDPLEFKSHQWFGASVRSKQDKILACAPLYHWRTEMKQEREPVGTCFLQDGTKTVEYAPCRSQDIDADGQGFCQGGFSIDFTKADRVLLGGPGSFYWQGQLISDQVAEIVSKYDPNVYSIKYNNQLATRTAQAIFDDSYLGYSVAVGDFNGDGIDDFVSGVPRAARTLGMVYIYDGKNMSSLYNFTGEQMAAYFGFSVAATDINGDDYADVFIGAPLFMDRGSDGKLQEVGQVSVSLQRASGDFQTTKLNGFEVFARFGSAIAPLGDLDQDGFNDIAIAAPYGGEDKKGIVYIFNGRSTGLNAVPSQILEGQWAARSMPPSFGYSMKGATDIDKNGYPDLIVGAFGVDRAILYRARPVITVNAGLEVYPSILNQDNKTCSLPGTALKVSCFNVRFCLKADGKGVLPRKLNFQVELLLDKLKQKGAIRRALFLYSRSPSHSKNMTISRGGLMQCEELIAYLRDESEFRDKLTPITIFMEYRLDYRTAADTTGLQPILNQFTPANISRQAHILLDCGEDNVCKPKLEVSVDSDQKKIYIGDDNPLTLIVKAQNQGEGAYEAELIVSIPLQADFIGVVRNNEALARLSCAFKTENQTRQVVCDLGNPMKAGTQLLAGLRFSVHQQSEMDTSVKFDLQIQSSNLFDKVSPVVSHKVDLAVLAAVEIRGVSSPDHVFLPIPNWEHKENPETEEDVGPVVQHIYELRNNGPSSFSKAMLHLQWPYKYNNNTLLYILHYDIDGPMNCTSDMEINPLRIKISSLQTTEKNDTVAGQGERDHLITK
T1 sequence (P06756 891-992 partner limits assumed): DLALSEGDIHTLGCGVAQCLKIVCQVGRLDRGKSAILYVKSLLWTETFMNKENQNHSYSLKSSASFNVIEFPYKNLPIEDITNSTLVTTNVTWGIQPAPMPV
T1 sequence (P05106 27-718 limits assumed): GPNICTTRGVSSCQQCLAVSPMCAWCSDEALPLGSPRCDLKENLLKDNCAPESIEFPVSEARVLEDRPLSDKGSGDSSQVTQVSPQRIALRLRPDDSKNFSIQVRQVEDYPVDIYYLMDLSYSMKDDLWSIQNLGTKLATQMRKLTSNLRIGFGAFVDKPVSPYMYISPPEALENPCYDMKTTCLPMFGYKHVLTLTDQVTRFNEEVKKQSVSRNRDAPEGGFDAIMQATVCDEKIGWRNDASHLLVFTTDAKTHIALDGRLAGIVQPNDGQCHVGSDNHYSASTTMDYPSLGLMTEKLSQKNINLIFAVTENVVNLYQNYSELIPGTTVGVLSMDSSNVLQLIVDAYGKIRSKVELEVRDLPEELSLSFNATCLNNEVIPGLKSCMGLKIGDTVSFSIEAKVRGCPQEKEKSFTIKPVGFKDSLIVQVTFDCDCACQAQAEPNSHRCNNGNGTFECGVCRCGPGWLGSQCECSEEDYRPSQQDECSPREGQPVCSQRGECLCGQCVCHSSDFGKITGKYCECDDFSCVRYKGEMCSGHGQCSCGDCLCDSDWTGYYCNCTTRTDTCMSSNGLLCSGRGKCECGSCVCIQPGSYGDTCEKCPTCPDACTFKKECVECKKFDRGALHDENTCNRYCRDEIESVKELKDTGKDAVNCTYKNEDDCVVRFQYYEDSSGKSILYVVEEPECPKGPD
T2 sequence (Q02763 23-1124): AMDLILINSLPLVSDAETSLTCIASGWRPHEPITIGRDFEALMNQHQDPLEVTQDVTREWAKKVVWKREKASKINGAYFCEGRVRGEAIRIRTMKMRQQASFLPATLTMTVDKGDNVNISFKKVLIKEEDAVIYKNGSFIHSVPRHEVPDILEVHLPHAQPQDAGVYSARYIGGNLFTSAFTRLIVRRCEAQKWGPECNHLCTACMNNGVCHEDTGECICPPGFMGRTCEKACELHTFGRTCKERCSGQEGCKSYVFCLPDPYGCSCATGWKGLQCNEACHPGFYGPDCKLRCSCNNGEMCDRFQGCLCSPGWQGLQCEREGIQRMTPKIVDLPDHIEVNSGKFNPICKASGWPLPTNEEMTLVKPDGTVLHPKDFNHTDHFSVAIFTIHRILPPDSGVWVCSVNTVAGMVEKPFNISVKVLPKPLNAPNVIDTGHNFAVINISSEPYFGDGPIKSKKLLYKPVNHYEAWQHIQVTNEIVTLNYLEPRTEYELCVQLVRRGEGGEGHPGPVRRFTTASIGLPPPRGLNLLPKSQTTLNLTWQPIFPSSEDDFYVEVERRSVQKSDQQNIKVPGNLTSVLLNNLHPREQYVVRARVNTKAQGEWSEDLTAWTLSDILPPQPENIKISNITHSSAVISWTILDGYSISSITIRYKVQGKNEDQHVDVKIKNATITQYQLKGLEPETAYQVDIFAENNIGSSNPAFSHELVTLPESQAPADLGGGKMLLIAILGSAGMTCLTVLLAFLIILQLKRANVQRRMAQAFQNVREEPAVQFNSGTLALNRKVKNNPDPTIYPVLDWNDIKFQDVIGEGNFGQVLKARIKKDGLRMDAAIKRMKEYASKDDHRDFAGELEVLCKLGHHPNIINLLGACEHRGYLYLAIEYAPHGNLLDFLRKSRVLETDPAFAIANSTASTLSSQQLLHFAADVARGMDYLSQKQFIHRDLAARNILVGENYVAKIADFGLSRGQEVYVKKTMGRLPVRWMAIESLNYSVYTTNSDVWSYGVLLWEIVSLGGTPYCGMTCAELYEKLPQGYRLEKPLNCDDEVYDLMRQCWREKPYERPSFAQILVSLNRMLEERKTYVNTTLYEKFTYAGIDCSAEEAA

Molecule | inhibition activity against the binding of Ang2 and integrin (U87MG cells [1]) | also measured
NEFVS QLTNQ QRYVL (NEFVSQLTNQQRYVL; Synthetic Peptide 16) [SEQ ID No. 16] | remarkably high inhibition activity | 
QLTNQ QRYVL KIHLK (QLTNQQRYVLKIHLK; Synthetic Peptide 17) [SEQ ID No. 17] | remarkably high inhibition activity | 
IYTLT FPNST EEIKA (IYTLTFPNSTEEIKA; Synthetic Peptide 4) [SEQ ID No. 4] | remarkably high inhibition activity; also recorded: excellent integrin-Ang2 binding inhibition activity | 
EYWLG NEFVS QLTNQ (EYWLGNEFVSQLTNQ; Synthetic Peptide 15) [SEQ ID No. 15, 15 consecutive amino acids (352 to 366) of the Ang2 protein] | remarkably high inhibition activity | Ang2 dependent cell adhesion inhibition activity (U87MG cells [1]; listed as 15): best Ang2 dependent cell adhesion inhibition activity; Ang2 dependent cell adhesion inhibition activity (U87MG cells [1]; listed as Peptide 15): excellent Ang2-dependent cell adhesion inhibition activity
LNYRI HLKGL TGTAG (LNYRIHLKGLTGTAG; Synthetic Peptide 24) [SEQ ID No. 24] | remarkably high inhibition activity | 
HTTNG IYTLT FPNST (HTTNGIYTLTFPNST; Synthetic Peptide 3) [SEQ ID No. 3] | remarkably high inhibition activity; also recorded: excellent integrin-Ang2 binding inhibition activity | 
WKGSG YSLKA TTMMI (WKGSGYSLKATTMMI; Synthetic Peptide 40) [SEQ ID No. 40] | remarkably high inhibition activity | 
B1 |  | binding level to integrin relative to wild type Ang2 (integrin (αVβ3)): ≤ 50%; inhibition of Ang2-integrin binding by Q362A modification (integrin (αVβ3)): ≥ 50%; induction level of cancer cell invasion compared with wild type Ang2 protein (U87MG cells [2]): remarkably low induction level of cancer cell invasion (approximately half or so); binding level to Tie2 compared with wild type Ang2 (Tie2 proteins (Q02763)): did not show any significant differences
